A short description of one series: in vitro. The conditions noted are these: for half-life at 2 µM: human, plasma, pH 7.4. How it is done: The pooled frozen plasma was thawed in a water bath at 37° C. prior to experiment. Plasma was centrifuged at 4000 rpm for 5 min and the clots were removed if any. The pH will be adjusted to 7.4±0.1 if required.
Preparation of test compounds and positive control (propantheline bromide): 1 mM intermediate solution was prepared by diluting 10 μL of the stock solution with 90 μL MeOH; 1 mM intermediate of positive control Propantheline was prepared by diluting 10 μL of the stock solution with 90 μL ultrapure water. 100 μM dosing solution was prepared by diluting 20 μL of the intermediate solution (1 mM) with 180 μL MeOH. 98 μL of blank plasma was spiked with 2 μL of dosing solution (100 μM) to achieve 2 μM of the final concentration in duplicate and samples were incubated at 37° C. in a water bath. At each time point (0, 10, 30, 60 and 120 min), […] of stop solution (0.1% FA in MeOH containing 200 ng/mL tolbutamide and 200 ng/mL Labetalol) was added to precipitate protein and mixed thoroughly. Centrifuged sample plates at 4,000 rpm for 10 min. An aliquot of supernatant (100 μL) was transferred from each well to another plates.
Data analysis: The % remaining of test compound after incubation in plasma was calculated using following equation: % Remaining=100×(PAR at appointed incubation time/PAR at T0 time) where PAR is the peak area ratio of analyte versus internal standard (IS) (LC/MS/MS mobile phase condition: 0.1% Formic Acid in Water/0.1% Formic Acid in Acetonitrile. The appointed incubation time points are TO (0 min), Tn (n=0, 10, 30, 60, 120 min). Liver S9 Stability

The nature of series [1]: Liver S9 stability and conversion to EFdA. The conditions noted are these: for half-life at 1 µM: human liver S9, 37° C. The format is in vitro ADME, human. How it is done:
Intermediate solution: Dilute 5 μL of compounds or controls (7-ethoxycoumarin) from stock solution (10 mM) with 495 μL MeOH (Conc.: 100 μM, 1% DMSO, 99% MeOH). Stop solution: Cold ACN (including 100 ng/mL Tolbutamide and Labetalol as internal standard). Add 2 μL test compound or control working solution/well to all plates (T0, T5, T10, T20, T30, T60, NCF60) except matrix blank. Add 600 μL/well stop solution (cold in 4° C., including 100 ng/mL Tolbutamide/100 ng/mL Labetalol) to terminate the TO plate, then put it on ice. Dispense 840 μL/well S9 solution to 96-well plate as reservoir according to plate map. Then add 100 μL/well to every plate by Apricot. Incubate S9 solution and compound at 37° C. for about 10 min except NCF60 and TO. After adding S9 solution and 98 μLPB buffer to NCF60, incubate at 37° C. without pre-warming, start timer 1. After 60 min, add 600 μL/well stop solution to terminate the reaction. After pre-warming, dispense 760 μL/well cofactor solution to 96-well plate as reservoir according to plate map. Then add 98 μL/well to every plate by Apricot to start reaction. Incubate at 37° C., start timer 2, Add 600 μL/well stop solution (cold in 4° C., including 100 ng/mL Tolbutamide and Labetalol) to terminate the reaction. Samples are centrifuged at 4000 rpm for 20 min. While centrifuging, load 8×new 96-well plate with 300 μL HPLC water, then transfer 100 μL supernatant, mix with water for LC/MS/MS, transferred to Bioanalytical Services for LC-MS/MS analysis. Use equation of first order kinetics to calculate t1/2 and CL: Equation of first order kinetics: […]

The nature of series [2]: Plasma exposures following oral administration to beagle dogs. The conditions noted are these: EFdA PO 5 mg/kg.

Several values for one entry are separate records, joined by “and”; a condition that tells them apart may be missing. Identical values can stand only once.

One may read the half-life as the time needed for the level to fall by half in the phase considered.

As for `C#C[C@]1(CO)O[C@@H](n2cnc3c(NC(=O)OC(C)C)nc(F)nc32)C[C@@H]1O` [Formula 3-A, isopropyl (9-((2R,4S,5R)-5-ethynyl-4-hydroxy-5-(hydroxymethyl)tetrahydrofuran-2-yl)-2-fluoro-9H-purin-6-yl)carbamate], in the series “in vitro”, the “Stability in Human Plasma Formation of EFdA” value is “No” and the half-life at 2 µM was greater than 200 min. Further, in series [1], the “Stability in Human Liver S9 Formation of EFdA” value was “No” and the half-life at 1 µM was 50 to 200 min.
Turning to `C#C[C@]1(CO)O[C@@H](n2cnc3c(N)nc(F)nc32)C[C@@H]1O` [Formula T-1A, (2R,3S,5R)-5-(6-amino-2-fluoro-9H-purin-9-yl)-2-ethynyl-2-(hydroxymethyl)tetrahydrofuran-3-ol, reference compound], the “EFdA Concentrations in Dog Plasma” value is 333 ng/mL and 276 ng/mL in series [2] (0.250 hrs, individual animals, 5 mg/kg); 299 ng/mL and 280 ng/mL in series [2] (0.500 hrs, individual animals, 5 mg/kg); 353 ng/mL and 361 ng/mL in series [2] (1.00 hrs, individual animals, 5 mg/kg); 212 ng/mL and 143 ng/mL in series [2] (2.00 hrs, individual animals, 5 mg/kg); 12.6 ng/mL and 17.9 ng/mL and 6.30 ng/mL in series [2] (4.00 hrs, individual animals, 5 mg/kg); “BQL” in series [2] (6.00 hrs, individual animals). The “EFdA Concentrations in Dog Plasma” value in series [2] (8.00 hrs, individual animals) is listed as “BQL”; in series [2] (12.0 hrs, individual animals), “BQL”; in series [2] (24.0 hrs, individual animals), “BQL”. In addition, the concentration at 0.25 h stood at 355 ng/mL in series [2] (male, beagle, dog, in vivo, po, 5 mg/kg, EFdA Concentrations in Dog Plasma, 0.250 hrs, Mean) and 456 ng/mL in series [2] (male, beagle, dog, in vivo, po, 5 mg/kg, EFdA Concentrations in Dog Plasma, 0.250 hrs, individual animals). For the same molecule, the concentration at 0.5 h in series [2] (male, beagle, dog, in vivo, po, 5 mg/kg, EFdA Concentrations in Dog Plasma, 0.500 hrs, Mean) stood at 323 ng/mL; in series [2] (male, beagle, dog, in vivo, po, 5 mg/kg, EFdA Concentrations in Dog Plasma, 0.500 hrs, individual animals) it was 391 ng/mL. Further, the concentration at 1 h in series [2] (male, beagle, dog, in vivo, po, 5 mg/kg, EFdA Concentrations in Dog Plasma, 1.00 hrs, Mean) came out at 361 ng/mL; in series [2] (male, beagle, dog, in vivo, po, 5 mg/kg, EFdA Concentrations in Dog Plasma, 1.00 hrs, individual animals), 369 ng/mL. In addition, the concentration at 2 h in series [2] (male, beagle, dog, in vivo, po, 5 mg/kg, EFdA Concentrations in Dog Plasma, 2.00 hrs, Mean) is 189 ng/mL; in series [2] (male, beagle, dog, in vivo, po, 5 mg/kg, EFdA Concentrations in Dog Plasma, 2.00 hrs, individual animals), 211 ng/mL. In series [2] (male, beagle, dog, in vivo, po, 5 mg/kg, EFdA Concentrations in Dog Plasma, 4.00 hrs, Mean), this molecule displayed a concentration at 4 h of 12.3 ng/mL.
For `C#C[C@]1(COC(=O)NC)O[C@@H](n2cnc3c(N)nc(F)nc32)C[C@@H]1O` [Formula 5-A, ((2R,3S,5R)-5-(6-amino-2-fluoro-9H-purin-9-yl)-2-ethynyl-3-hydroxytetrahydrofuran-2-yl)methyl methylcarbamate], in “in vitro”, the “Stability in Human Plasma Formation of EFdA” value is reported as “No” and the half-life at 2 µM was greater than 200 min. For the same molecule, in series [1], the “Stability in Human Liver S9 Formation of EFdA” value is on record as “No” and the half-life at 1 µM fell in the range of 50 to 200 min.
On to `C#C[C@]1(COC(=O)NCCN(C)Cc2oc(=O)oc2C)O[C@@H](n2cnc3c(N)nc(F)nc32)C[C@@H]1O` [Formula 7-A, ((2R,3S,5R)-5-(6-amino-2-fluoro-9H-purin-9-yl)-2-ethynyl-3-hydroxytetrahydrofuran-2-yl)methyl (2-(methyl((5-methyl-2-oxo-1,3-dioxol-4-yl)methyl)amino)ethyl)carbamate], for which, in “in vitro”, the “Stability in Human Plasma Formation of EFdA” value is reported as “No” and the half-life at 2 µM was in the range of 50 to 200 min. For the same molecule, in series [1], the “Stability in Human Liver S9 Formation of EFdA” value is on record as “No” and the half-life at 1 µM is less than 50 min.
Turning to `C#C[C@]1(COC(=O)OCc2oc(=O)oc2C)O[C@@H](n2cnc3c(N)nc(F)nc32)C[C@@H]1OC(=O)OCc1oc(=O)oc1C` [Formula 4-C, ((2R,3S,5R)-5-(6-amino-2-fluoro-9H-purin-9-yl)-2-ethynyl-3-((((5-methyl-2-oxo-1,3-dioxol-4-yl)methoxy)carbonyl)oxy)tetrahydrofuran-2-yl)methyl ((5-methyl-2-oxo-1,3-dioxol-4-yl)methyl) carbonate], in the series “in vitro”, the “Conversion to the target drug (EFdA) in human plasma assay” value is reported as “converted to the target drug efficiently”, the “Stability in Human Plasma Formation of EFdA” value was “Yes” and the half-life at 2 µM is less than 50 min. In series [1], the “Conversion to the target drug (EFdA) in liver S9 assay” value is “converted to the target drug efficiently”, the “Stability in Human Liver S9 Formation of EFdA” value is listed as “Yes” and the half-life at 1 µM was less than 50 min.
`C#C[C@]1(CO)O[C@@H](n2cnc3c(NCc4oc(=O)oc4C)nc(F)nc32)C[C@@H]1O` [Formula 6-A, 4-(((9-((2R,4S,5R)-5-ethynyl-4-hydroxy-5-(hydroxymethyl)tetrahydrofuran-2-yl)-2-fluoro-9H-purin-6-yl)amino)methyl)-5-methyl-1,3-dioxol-2-one]: in “in vitro”, the “Stability in Human Plasma Formation of EFdA” value is reported as “No” and the half-life at 2 µM was less than 50 min. For the same molecule, in series [1], the “Conversion to the target drug (EFdA) in liver S9 assay” value is given as “converted to the target drug efficiently”, the “Stability in Human Liver S9 Formation of EFdA” value is given as “Yes” and the half-life at 1 µM was less than 50 min.
With `C#C[C@]1(COC(=O)NC(C)C)O[C@@H](n2cnc3c(N)nc(F)nc32)C[C@@H]1O` [Formula 2-A, ((2R,3S,5R)-5-(6-amino-2-fluoro-9H-purin-9-yl)-2-ethynyl-3-hydroxytetrahydrofuran-2-yl)methyl isopropylcarbamate], in “in vitro”, the “Stability in Human Plasma Formation of EFdA” value is given as “No” and the half-life at 2 µM is greater than 200 min. In series [1], the “Stability in Human Liver S9 Formation of EFdA” value is on record as “No” and the half-life at 1 µM lay in the range of 50 to 200 min.

Values taken from patent US12257264B2, “Combination therapy for HIV with adenosine derivative and capsid inhibitors” (Brii Biosciences, Inc., priority 2021, dated 2025).
